PubChem BioAssay (NCI)
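1) Cells in 96-well plates. 2) Compound, 48 h, 5 concentrations. 3) Linear interpolation between surrounding doses. 4) Unreached endpoint = highest concentration. TGI marks complete inhibition of growth.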

Assays:
Experiment in all cases: growth of human tumour cells (NCI), 48 h
HL-60(TB) leukemia = test system: HL-60(TB) leukemia
MOLT-4 leukemia = test system: MOLT-4 leukemia
BT-549 breast = test system: BT-549 breast
OVCAR-8 ovarian = test system: OVCAR-8 ovarian
SW-620 colon = test system: SW-620 colon
ACHN renal = test system: ACHN renal
NCI/ADR-RES ovarian = test system: NCI/ADR-RES ovarian
K-562 leukemia = test system: K-562 leukemia
KM12 colon = test system: KM12 colon
SK-MEL-5 melanoma = test system: SK-MEL-5 melanoma
HCT-116 colon = test system: HCT-116 colon
RXF 393 renal = test system: RXF 393 renal
HT29 colon = test system: HT29 colon
EKVX NSCLC = test system: EKVX NSCLC
MCF7 breast = test system: MCF7 breast
CCRF-CEM leukemia = test system: CCRF-CEM leukemia
NCI-H460 lung = test system: NCI-H460 lung
A498 renal = test system: A498 renal
HOP-92 NSCLC = test system: HOP-92 NSCLC

Structure (SMILES)	TGI (HL-60(TB) leukemia) [µM]	TGI (MOLT-4 leukemia) [µM]	TGI (BT-549 breast) [µM]	TGI (OVCAR-8 ovarian) [µM]	TGI (SW-620 colon) [µM]	TGI (ACHN renal) [µM]	TGI (NCI/ADR-RES ovarian) [µM]	TGI (K-562 leukemia) [µM]	TGI (KM12 colon) [µM]	TGI (SK-MEL-5 melanoma) [µM]	TGI (HCT-116 colon) [µM]	TGI (RXF 393 renal) [µM]	TGI (HT29 colon) [µM]	TGI (EKVX NSCLC) [µM]	TGI (MCF7 breast) [µM]	TGI (CCRF-CEM leukemia) [µM]	TGI (NCI-H460 lung) [µM]	TGI (A498 renal) [µM]	TGI (HOP-92 NSCLC) [µM]
COC(=O)C1C(OC(=O)C(Cl)(c2ccccc2)c2ccccc2)CC2CCC1N2C (centres undefined)	> 100	> 100	> 100	> 100	> 100	> 100	> 100	> 100	> 100	> 100	> 100	> 100	> 100	> 100	> 100	> 100	–	–	–
CSC1=NC(C(N)=O)C(N)N1C (centres undefined)	> 100	> 100	> 100	> 100	> 100	> 100	> 100	> 100	> 100	> 100	> 100	> 100	> 100	> 100	–	> 100	> 100	> 100	> 100
COc1cc(/C=C/C(=O)OCCc2ccccc2)ccc1O	40.2	37.9	28.1	79.3	41.2	33.9	60.6	85.4	30.3	33.7	31.6	–	44.3	33.5	44.8	–	37.1	–	–
O=C1C(C(c2ccccc2)N2CCOCC2)=C(O)C(c2ccccc2)N1c1ccccc1 (centres undefined)	> 10	> 10	> 10	> 10	> 10	> 10	> 10	> 10	> 10	> 10	> 10	> 10	> 10	> 10	> 10	> 10	> 10	> 10	–
C1=Nc2sc3c(c2C2=NCCN12)CCCC3	36.5	36.4	28.7	32.1	43.8	30.8	34.6	> 100	31.3	34.3	30.5	44.9	32.8	32	33.7	–	32.4	46.6	–
CCOC(=O)N(c1ccccc1)c1cc(=O)n2ccccc2n1	> 100	> 100	> 100	> 100	> 100	> 100	> 100	> 100	> 100	> 100	> 100	> 100	> 100	> 100	> 100	> 100	> 100	> 100	–
O=C(O)c1ccc([N+]2=Cn3c(nc4ccccc43)C2)cc1	> 100	–	> 100	> 100	> 100	> 100	> 100	> 100	> 100	> 100	> 100	> 100	> 100	> 100	> 100	> 100	> 100	> 100	–
